Data on one molecule can be found in publication PMC5858925, “Mechanochemical coupling and bi-phasic force-velocity dependence in the ultra-fast ring ATPase SpoIIIE” (eLife, 2018).

This assay has as its target T1, SpoIIIE (Bacillus subtilis, UniProt P21458).
T1 construct: recombinant SpoIIIE, homo-hexamer, immobilized on polystyrene beads
Description: optical tweezers, pause-free DNA translocation velocity vs [ATP], Michaelis-Menten fit. Format: biochemical. Particulars: 0.25-5 mM ATP; 5 pN opposing force; dsDNA track; 5 µM ADP and 5 µM Pi.

T1 sequence (P21458 whole entry): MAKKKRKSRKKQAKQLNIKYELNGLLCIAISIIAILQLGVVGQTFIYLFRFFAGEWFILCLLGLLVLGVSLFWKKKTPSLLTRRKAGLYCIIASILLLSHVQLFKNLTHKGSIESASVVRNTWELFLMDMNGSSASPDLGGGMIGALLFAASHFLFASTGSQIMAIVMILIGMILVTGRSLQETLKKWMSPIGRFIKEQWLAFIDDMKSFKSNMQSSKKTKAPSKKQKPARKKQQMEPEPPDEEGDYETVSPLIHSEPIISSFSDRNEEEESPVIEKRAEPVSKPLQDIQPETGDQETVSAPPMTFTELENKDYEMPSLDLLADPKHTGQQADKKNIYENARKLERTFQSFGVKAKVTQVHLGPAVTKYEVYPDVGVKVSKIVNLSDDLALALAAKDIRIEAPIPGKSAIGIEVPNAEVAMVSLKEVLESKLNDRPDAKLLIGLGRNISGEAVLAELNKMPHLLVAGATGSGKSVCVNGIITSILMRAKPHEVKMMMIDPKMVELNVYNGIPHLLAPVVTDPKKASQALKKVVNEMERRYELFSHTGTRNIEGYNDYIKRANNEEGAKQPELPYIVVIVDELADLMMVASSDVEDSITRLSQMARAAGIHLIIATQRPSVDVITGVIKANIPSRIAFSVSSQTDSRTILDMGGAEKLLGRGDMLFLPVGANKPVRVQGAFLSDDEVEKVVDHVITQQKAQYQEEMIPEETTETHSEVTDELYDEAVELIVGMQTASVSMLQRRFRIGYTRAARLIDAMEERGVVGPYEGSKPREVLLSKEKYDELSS

Consider `Nc1ncnc2c1ncn2[C@@H]1O[C@H](COP(=O)(O)OP(=O)(O)OP(=O)(O)O)[C@@H](O)[C@H]1O` [ATP], for which the KM result is “Although both Vmax and KM decrease with force, Vmax/KM is largely force-independent”.
